Data from patent US4522803A (priority 1983, dated 1985).
Read-outs that look alike come from different tables or passages of the source.

Experiments:
B. canis [1] = system: B. canis; set-up: species or system B. canis ATCC 23365; conditions: in vivo
B. canis [2] = type: cell-based; conditions: suspension culture
B. canis [3] = type: cell-based
B. abortus [4] = type: cell-based; conditions: mean ± SD of 12 replicates; streptomycin 1 mg/ml, 24 hours
B. canis [5] = system: B. canis; set-up: species or system B. canis ATCC 23365; conditions: in vivo; remark: listed apart in the source
B. canis [6] = system: B. canis; set-up: species or system B. canis ATCC 23365; conditions: in vivo, ip, 10 mg/kg
B. canis [7] = system: B. canis; set-up: species or system B. canis ATCC 23365; conditions: in vivo, ip, 10 mg/kg; remark: listed apart in the source
B. abortus [8] = system: B. abortus; set-up: species or system B. abortus ATCC 23451; conditions: in vivo, ip, 10 mg/kg
M. bovis = type: in vivo
B. canis antigen = conditions: in vivo
[9] = Retention and sustained release of gentamycin after topical application in eyes of mice

CN[C@@H]1[C@H](O[C@H]2[C@H](O[C@H]3[C@H](O)[C@@H](O)[C@H](NC(=N)N)[C@@H](O)[C@@H]3NC(=N)N)O[C@@H](C)[C@]2(O)CO)O[C@@H](CO)[C@H](O)[C@H]1O [Dihydrostreptomycin]
Colony-Forming Units B. Canis Per Spleen (B. canis [1]): 1.13 ± 0.30 × 10^5 | Killing of B. canis in vitro (B. canis [2]): kill B. canis in vitro

[H]/N=C(/N)N[C@H]1[C@H](O)[C@@H](O)[C@H](O[C@@H]2O[C@@H](C)[C@](O)(C=O)[C@H]2O[C@@H]2O[C@@H](CO)[C@H](O)[C@@H](O)[C@@H]2NC)[C@@H](N/C(N)=N\[H])[C@@H]1O [Streptomycin]
Colony-forming units of intracellular B. canis (B. canis [3]): 3.11 + 0.40 × 10^3 CFU | Colony-forming units of intracellular B. abortus (B. abortus [4]): 3.3 ± 0.25 × 10^4 CFU | Surviving B. canis in spleens (B. canis [5]): very little reduction in surviving B. canis in spleens was observed | Surviving B. canis per organ (B. canis [6]): viable B. canis organisms could be isolated in all tissues sampled | Colony-Forming Units B. Canis Per Spleen (B. canis [1]): 1.01 ± 0.17 × 10^5 | Killing of B. canis in vitro (B. canis [2]): kill B. canis in vitro | Blood and vaginal culture outcome (B. canis [7]): remained culture positive for blood and vaginal cultures during post-treatment periods | Surviving B. abortus in spleen (B. abortus [8]): viable B. abortus bacteria were be identified | M. Bovis cultures positive (M. bovis; UV-radiated, day 3 post-treatment): 3/5 | M. Bovis cultures positive (M. bovis; UV-radiated, day 5 post-treatment): 4/5 | Number of mice with corneal opacity score 0 (M. bovis; UV-radiated, post-treatment): 14 | Number of mice with corneal opacity score 1 (loss of normal luster) (M. bovis; UV-radiated, post-treatment): 3 | Number of mice with corneal opacity score 2 (small foci of opacity) (M. bovis; UV-radiated, post-treatment): 2 | Number of mice with corneal opacity score 3 (partial opacity) (M. bovis; UV-radiated, post-treatment): 1 | Number of mice with corneal opacity score 4 (total opacity) (M. bovis; UV-radiated, post-treatment): 0 | Number of mice with corneal opacity score 0 (M. bovis; UV-radiated, pre-treatment): 0 | Number of mice with corneal opacity score 1 (loss of normal luster) (M. bovis; UV-radiated, pre-treatment): 4 | Number of mice with corneal opacity score 2 (small foci of opacity) (M. bovis; UV-radiated, pre-treatment): 9 | Number of mice with corneal opacity score 3 (partial opacity) (M. bovis; UV-radiated, pre-treatment): 7 | Number of mice with corneal opacity score 4 (total opacity) (M. bovis; UV-radiated, pre-treatment): 0 | M. Bovis cultures positive (M. bovis; non-radiated, day 3 post-treatment): 2/5 | M. Bovis cultures positive (M. bovis; non-radiated, day 5 post-treatment): 2/5 | Number of mice with corneal opacity score 0 (M. bovis; non-radiated, post-treatment): 18 | Number of mice with corneal opacity score 1 (loss of normal luster) (M. bovis; non-radiated, post-treatment): 2 | Number of mice with corneal opacity score 2 (small foci of opacity) (M. bovis; non-radiated, post-treatment): 0 | Number of mice with corneal opacity score 3 (partial opacity) (M. bovis; non-radiated, post-treatment): 0 | Number of mice with corneal opacity score 4 (total opacity) (M. bovis; non-radiated, post-treatment): 0 | Number of mice with corneal opacity score 0 (M. bovis; non-radiated, pre-treatment): 18 | Number of mice with corneal opacity score 1 (loss of normal luster) (M. bovis; non-radiated, pre-treatment): 1 | Number of mice with corneal opacity score 2 (small foci of opacity) (M. bovis; non-radiated, pre-treatment): 1 | Number of mice with corneal opacity score 3 (partial opacity) (M. bovis; non-radiated, pre-treatment): 0 | Number of mice with corneal opacity score 4 (total opacity) (M. bovis; non-radiated, pre-treatment): 0 | M (2-mercaptoethanol tube agglutination test), reciprocal of serum titer (B. canis antigen): 0 × 10^2 | R (rapid slide agglutination test), reciprocal of serum titer (B. canis antigen): 0 × 10^2 | Serum antibody against B. canis (B. canis antigen; ip, 10 mg/kg): developed detectable serum titers against B. canis antigens by day 21 post-inoculation

Gentamycin
Killing of B. canis in vitro (B. canis [2]): kill B. canis in vitro | Gentamycin retained in eyelid tissue ([9]; 4 hours, topical): less than 5% | Gentamycin sulfate cleared ([9]; within a 4 hour period): 95%
